Data published in patent US5990137A, “Method of inhibiting NADPH oxidase” (Idun Pharmaceuticals, Inc., priority 1998, dated 1999).

Legend:
[1] = test system: monocytes (TNF secretion); assay: Specificity: secretion of TNF by monocytes; assay type: cell-based; conditions: 50 μM; LPS stimulated or unstimulated monocytes
Method: (§1) To assess specificity of action, the title compound (hereinafter "Azine") was tested for its ability to inhibit other functions of stimulated neutrophils and monocytes. The procedure followed was set forth in Mrowietz et al., British Journal of Dermatology, 127:382-386 (1992); Snyderman, Ralph, Methods for Studying Mononuclear Phagocytes, ed. Adams, Edelson, and Koren, New York, Academic Press, pp. 535-547 (1981); Sozzani et al., The Journal of Immunology, Oct. 1, 1991, pp. 2215-2221; Zigmond et al., The Journal of Experimental Medicine, 137:387 (1973); Wahl et al., Cell Immunol., 85:373 (1984); Wahl et al., Current Protocols in Immunology, ed. Coligan, Kruisbeek, Margulies, Shevach, and Strober, p. 7.6.1 (1991); Hogquist et al., J. Immunol, 147:2181 (1991). The Azine (50 μM) had no effect on chemotaxis of neutrophils activated by the chemotactic peptide f-Met-Leu-Phe.

[2] = test system: isolated neutrophils (opsonized zymosan-stimulated oxidative burst); assay: Measurement of chemiluminescence of isolated neutrophils (neutrophil burst, Lucigenin); assay type: cell-based; conditions: for IC50 / inhibition at 50 µM: Neutrophil; for inhibition at 50 µM: percent inhibition at 50 μM, single concentration, read-out: Neutrophil Burst Screen Value (% @ 50 μM)
Method: Whole blood (150 ml) was anticoagulated with Acid Citrate Dextrose (ACD) using a ratio of 1:5 ACD to blood.
All steps are to be performed using polypropylene plastic ware.
a. Whole blood (60 ml) was added to each of three 100 ml polypropylene graduated cylinders containing 30 ml of […]. The cylinders were covered securely with Parafilm. The blood was allowed to sediment for approximately 1 hour at room temperature.
b. The turbid straw-colored layer was harvested from the top of the cylinders into 50 ml conical polypropylene tubes. The white blood cells were pelleted by centrifugation at 240×g (Sorvall at 1200 rpm) for 12 min. at 4° C. with the brake on low.
c. The supernatant was removed by aspiration and the pooled pellet resuspended in 4-50 ml cold PBS (w/o Ca, Mg). It was then centrifuged at 240×g (Sorvall at 1200 rpm) for 6 min. at 4° C. with the brake on high.
a. The supernatant was aspirated and the pellet resuspended in 12 ml of cold cell culture-grade water. The pellet was titrated gently with a pipet for exactly 30 seconds then 4 ml of cold 0.6 M KCl was added. It was then QSed to 50 ml with cold PBS (w/o Ca, Mg) and centrifuged at 300×g (Sorvall TY 6000D at 1400 rpm) for 6 min. at 4° C. with the brake on high.
b. Step 2.a. was repeated once more.
a. The supernatant was aspirated and the cells were resuspended in 2.5 ml cold PBS (w/o Ca, Mg). The cell suspension was carefully layered over 3 ml Ficoll-Hypaque in a 15 ml polypropylene conical tube. It was then centrifuged at 400×g (Sorvall at 1900 rpm) for 30 min. at 4° C. with the brake on low.
b. Aspiration occurred down to the neutrophil pellet. The pellet was resuspended fin cold PBS (w/o Ca, Mg) and transferred to a 50 ml conical tube. It was then QSed to 50 ml with cold PBS (w/o Ca, Mg) and centrifuged at 300×g (Sorvall at 1400 rpm) for 6 min. at 4° C. with the brake on high.
d. The supernatant was aspirated and the pellet resuspended in 50 ml cold PBS (w/o Ca, Mg) and centrifuged at 300×g (Sorvall at 1400 rpm) for 6 min. with the brake on high.
e. The supernatant was aspirated and the neutrophil pellet resuspended in 4.0 ml cold PBS (w/o Ca, Mg). It was kept on ice. Trypan blue (10 μl) was diluted (1:40) and the cells were counted using a hemacytometer. The cell number and viability by Trypan […] exclusion were determined and the results recorded. The cells were diluted to 5.0×10^6 cells/ml with cold PBS-G (with Ca, Mg) prior to plating for the assay.
2. […] The suspension was centrifuged and the particles resuspended in 7 ml of PBS-G (with Ca, Mg)(18 mg/ml). It was stored on ice until used (briefly vortexed prior to pipetting).
4. PBS-G (10 μl) (with Ca, Mg) was added to the wells in a white 96 well plate.
6. The compound dilutions (10 μl) were added to the appropriate wells.
7. The cell prep was diluted to 5.0×10^6 cells/ml with PBS-G (with Ca, Mg) in a separate multipipette trough.
8. The neutrophil suspension (20 μl) was added to the appropriate wells.
9. The plate was incubated at 37° C. for three minutes.
10. Zymosan (10 μl of 18 mg/ml) was added to the appropriate wells.
11. The plate was read on the luminometer (Labsystems Luminoskan, Needham Heights, Mass.) for 14 min. at 37° C. on the kinetic mode and the results recorded using the software DeltaSoft.
12. The plate data was exported into Excel to determine percent of control and derive the means and standard deviations for the data. The IC50 was determined graphically from the data and plotted using SigmaPlot. For cases where one concentration (50 μM) was tested, percent inhibition was compared to that seen with 50 μM apocynin.
13. The results are set forth below in Table 1 as "Neutrophil Burst IC50 (Lucigenin)". The results for 50 μM inhibition in the single assay are reported as "Neutrophil Burst Screen Value (% @ 50 μM)".

[3] = test system: monocytes (IL-1 secretion); assay: Specificity: secretion of IL-1 by monocytes; assay type: cell-based; conditions: 50 μM; LPS stimulated or unstimulated monocytes
Method: as §1

Jurkat cells = assay: Cytotoxicity assay employing Jurkat cells (MTT); assay type: cell-based; conditions: Jurkat clone E6-1, MTT, 37° C. overnight
Method: This Assay was performed as set forth in Hansen et al., Journal of Immunological Methods, 119:203-210 (19930; Mosmann, Journal of Immunological Methods, 65:55-63 (1983); and Slater et al., Biochem. Ciophys. Acta, 77:383 (1963); except as noted below.
Compounds from the following Examples were tested for cytotoxicity using MTT (i.e., 3-[4,5-Dimethylthiazol-2-yl]-2,5-diphenyltetrazolium bromide; Thiazolyl Blue (Sigma, St. Louis, Mo.)).
MTT was dissolved in basal culture media at a concentration of 5 mg/ml. If necessary, it was briefly warmed at 37° C. to fully dissolve, passed through a sterile filter, and aliquoted and stored at -20° C. until use.
The Extraction Buffer used was a solution composed of 20% SDS, 2.5% Acetic Acid (80% 6 stock solution), 2.5% 1N Hcl, 50% Dimethylformamide/50% dissolved in distilled water, SDS was dissolved into buffer components with gentle heating and stirring and the resultant solution was filtered and stored until use.
The MTT solution was added in an amount equal to 10% of the culture volume to each well in a 96-well plate containing 100,000 Jurkat cells/well.
The wells were then incubated for 0.5 to 2 hours in standard culture conditions. A volume of extraction buffer equal to the culture volume was added. The 96-well plate was then sealed. The formazan crystals were allowed to extract at 37° C. for four hours. The plate was read on a spectrophotometer [Spectramax 250, Molecular Devices, Sunnyvale, Calif.] at an absorbance wavelength of 560 nm. (The background absorbance measured at 650 nm was subtracted from the value measured at 560 nm.)
The Jurkat cells (Jurkat clone E6-1) were grown using standard conditions supplied by ATCC (American Type Culture Collection--Rockville, Md.).
The compounds diluted in medium (RPMI 1640 plus 10% fetal bovine serum) stock solution of 100 μM, then this stock solution was further diluted 3-fold before testing in the instant assay.
2-Hydroxy-3-methoxy-E-nitrostyrene tested at 100 μM as death control cells, incubated under the above conditions at 37° C. overnight.
The Extraction Buffer (100 μl) was added to each well and the resultant suspension was incubated 4 hours at 37° C.
The results from this procedure are set forth above in Table 1 in the column marked "Cytotox (MTT/Jurkat)". […] Toxicity was rated "3" if dead cells and >50% reduction in MTT absorbance at 1 μM test compound.

Xanthine oxidase = target: T1, Xanthine oxidase (Bos taurus, UniProt P80457); assay: Xanthine oxidase assay (superoxide by hypoxanthine/xanthine oxidase, Lucigenin); assay type: biochemical; conditions: hypoxanthine 150 μM, buttermilk xanthine oxidase, 37° C.
T1 construct: purchased Sigma x-1875; host or cells: buttermilk

neutrophils = assay: Specificity: chemotaxis of neutrophils activated by f-Met-Leu-Phe; assay type: cell-based; conditions: 50 μM
Method: as §1

[4] = 14 min, opsonized zymosan, lucigenin, 37° C.

T1 sequence (P80457 whole entry): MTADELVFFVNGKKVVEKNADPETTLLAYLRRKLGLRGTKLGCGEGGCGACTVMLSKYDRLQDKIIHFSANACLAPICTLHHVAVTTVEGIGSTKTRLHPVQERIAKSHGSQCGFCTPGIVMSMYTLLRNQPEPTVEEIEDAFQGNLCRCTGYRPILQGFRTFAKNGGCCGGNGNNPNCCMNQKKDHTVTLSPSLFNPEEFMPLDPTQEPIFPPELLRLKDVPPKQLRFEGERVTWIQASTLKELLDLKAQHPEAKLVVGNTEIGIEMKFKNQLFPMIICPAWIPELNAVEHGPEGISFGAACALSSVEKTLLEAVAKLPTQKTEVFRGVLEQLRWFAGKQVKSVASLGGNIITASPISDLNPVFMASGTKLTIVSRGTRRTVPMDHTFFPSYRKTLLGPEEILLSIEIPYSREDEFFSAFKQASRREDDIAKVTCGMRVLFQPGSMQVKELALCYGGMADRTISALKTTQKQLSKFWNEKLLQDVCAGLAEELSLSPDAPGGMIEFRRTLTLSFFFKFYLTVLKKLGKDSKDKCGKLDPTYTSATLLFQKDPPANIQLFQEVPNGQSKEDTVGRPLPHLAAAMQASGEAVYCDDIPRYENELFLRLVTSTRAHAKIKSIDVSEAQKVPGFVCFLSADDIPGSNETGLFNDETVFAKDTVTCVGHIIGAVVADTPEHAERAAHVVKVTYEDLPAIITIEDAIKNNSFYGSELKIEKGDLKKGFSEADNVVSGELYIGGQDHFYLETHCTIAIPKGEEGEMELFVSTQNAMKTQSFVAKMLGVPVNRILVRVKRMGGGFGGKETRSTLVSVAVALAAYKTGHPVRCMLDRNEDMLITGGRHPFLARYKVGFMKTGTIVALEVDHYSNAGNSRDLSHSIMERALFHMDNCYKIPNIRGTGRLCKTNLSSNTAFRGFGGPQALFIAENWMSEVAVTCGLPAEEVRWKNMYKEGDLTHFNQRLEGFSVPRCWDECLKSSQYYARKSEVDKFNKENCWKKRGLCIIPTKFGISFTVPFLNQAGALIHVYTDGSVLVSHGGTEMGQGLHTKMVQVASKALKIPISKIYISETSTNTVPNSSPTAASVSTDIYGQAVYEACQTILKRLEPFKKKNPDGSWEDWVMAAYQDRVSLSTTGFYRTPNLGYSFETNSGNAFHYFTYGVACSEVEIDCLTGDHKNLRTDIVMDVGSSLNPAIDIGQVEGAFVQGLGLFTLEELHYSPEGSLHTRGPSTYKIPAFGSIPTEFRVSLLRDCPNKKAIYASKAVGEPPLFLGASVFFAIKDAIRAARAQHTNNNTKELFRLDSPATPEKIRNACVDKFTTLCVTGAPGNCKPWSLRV

| SMILES | inhibition of secretion of TNF [1] | IC50 [2, 4] | inhibition at 50 µM [2] | inhibition of secretion of IL-1 [3] | Cytotox (MTT/Jurkat) (Jurkat cells) | Xanthine Oxidase Inhibition IC50 (Integral) (Xanthine oxidase) | effect on chemotaxis of neutrophils (neutrophils) | Neutrophil Burst IC50 (Lucigenin) ([2]; opsonized zymosan, lucigenin, 37° C., 14 min) | IC50 (Xanthine oxidase; read-out: Xanthine Oxidase Inhibition IC50 (Integral)) |
| --- | --- | --- | --- | --- | --- | --- | --- | --- | --- |
| COc1cc(/C=N/N=C/c2ccc(O)c(OC)c2)ccc1O [C, Bis[4-hydroxy-3-methoxybenzaldehyde]-trans,trans-azine] | did not inhibit | 4.9 µM | 85.6% | did not inhibit | 0 | No Effect | no effect |  |  |
| COc1cccc(/C=N/N=C/c2cccc(OC)c2O)c1O [A, Bis[3-methoxy-2-hydroxybenzaldehyde]trans,trans-azine] |  |  | 1.1% |  | 0 | No Effect |  | No Effect |  |
| COc1cc(/C=N/N=C/c2ccccc2)ccc1O [Example 13, N-[4-Hydroxy-3-Methoxybenzaldehyde]-N'-[Benzaldehyde]trans,trans-Azine] |  | 44 µM |  |  | 0 | No Effect |  |  |  |
| Oc1ccc(/C=N/N=C/c2ccc(O)c(O)c2)cc1O [Example 12, Bis[3,4 - Dihydroxybenzaldehyde]trans,trans-Azine] |  | 7.3 µM |  |  | 1 (dead cells and >50% reduction in MTT absorbance were observed at 100 μM of the test compound) |  |  |  | 1.1 µM |
